Like-named read-outs stand apart in the source and are kept apart here.
Tests used:
Assay type in all cases: binding
[1] = target: T1, HeLa cell extract proteins (Homo sapiens, UniProt Q71U36)
T1 construct: endogenous in cells; host or cells: HeLa cell extract

[2] = target: T2, HeLa cell extract proteins (Homo sapiens, UniProt Q9P2K8)
T2 construct: endogenous in cells; host or cells: HeLa cell extract

[3] = target: T3, HeLa cell extract proteins (Homo sapiens, UniProt Q14258)
T3 construct: endogenous in cells; host or cells: HeLa cell extract

[4] = target: T4, HeLa cell extract proteins (Homo sapiens, UniProt P15311)
T4 construct: endogenous in cells; host or cells: HeLa cell extract

[5] = target: T5, HeLa cell extract proteins (Homo sapiens, UniProt Q9UII2)
T5 construct: endogenous in cells; host or cells: HeLa cell extract
T5 sequence (Q9UII2 26-106): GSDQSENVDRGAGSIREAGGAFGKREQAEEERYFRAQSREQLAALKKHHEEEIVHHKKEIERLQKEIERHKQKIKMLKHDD

[6] = target: T6, HeLa cell extract proteins (Homo sapiens, UniProt P35270)
T6 construct: endogenous in cells; host or cells: HeLa cell extract

[7] = target: T7, HeLa cell extract proteins (Homo sapiens, UniProt O75874)
T7 construct: endogenous in cells; host or cells: HeLa cell extract

[8] = target: T8, HeLa cell extract proteins (Homo sapiens, UniProt P51398)
T8 construct: endogenous in cells; host or cells: HeLa cell extract

[9] = target: T9, HeLa cell extract proteins (Homo sapiens, UniProt P30084)
T9 construct: endogenous in cells; host or cells: HeLa cell extract
T9 sequence (P30084 28-290): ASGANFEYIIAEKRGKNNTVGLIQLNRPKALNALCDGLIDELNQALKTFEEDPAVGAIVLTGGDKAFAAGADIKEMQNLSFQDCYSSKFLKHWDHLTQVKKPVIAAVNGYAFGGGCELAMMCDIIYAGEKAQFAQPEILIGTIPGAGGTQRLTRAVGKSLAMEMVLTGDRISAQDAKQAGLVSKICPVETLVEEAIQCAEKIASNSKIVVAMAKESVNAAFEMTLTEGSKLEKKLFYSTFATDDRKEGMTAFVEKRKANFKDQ

[10] = target: T10, HeLa cell extract proteins (Homo sapiens, UniProt Q14CZ7)
T10 construct: endogenous in cells; host or cells: HeLa cell extract
T10 sequence (Q14CZ7 1-662): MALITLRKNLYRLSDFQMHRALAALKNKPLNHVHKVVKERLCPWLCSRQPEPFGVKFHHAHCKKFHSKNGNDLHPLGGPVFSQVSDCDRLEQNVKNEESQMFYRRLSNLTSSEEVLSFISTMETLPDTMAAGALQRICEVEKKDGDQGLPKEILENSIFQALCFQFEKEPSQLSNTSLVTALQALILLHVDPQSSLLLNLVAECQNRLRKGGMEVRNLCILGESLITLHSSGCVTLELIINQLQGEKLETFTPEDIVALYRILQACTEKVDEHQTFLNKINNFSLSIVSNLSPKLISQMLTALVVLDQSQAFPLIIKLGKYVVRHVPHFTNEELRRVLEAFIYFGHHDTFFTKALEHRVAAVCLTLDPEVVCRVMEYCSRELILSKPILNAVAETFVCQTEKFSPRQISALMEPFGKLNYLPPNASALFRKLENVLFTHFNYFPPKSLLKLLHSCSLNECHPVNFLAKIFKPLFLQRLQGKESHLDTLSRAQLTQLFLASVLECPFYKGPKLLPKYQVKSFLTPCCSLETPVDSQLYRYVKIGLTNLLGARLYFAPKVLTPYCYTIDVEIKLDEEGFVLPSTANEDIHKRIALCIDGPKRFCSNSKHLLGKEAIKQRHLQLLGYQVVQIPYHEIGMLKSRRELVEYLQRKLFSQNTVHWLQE

[11] = target: T11, HeLa cell extract proteins (Homo sapiens, UniProt Q01518)
T11 construct: endogenous in cells; host or cells: HeLa cell extract

[12] = target: T12, HeLa cell extract proteins (Homo sapiens, UniProt P09622)
T12 construct: endogenous in cells; host or cells: HeLa cell extract
T12 sequence (P09622 36-509): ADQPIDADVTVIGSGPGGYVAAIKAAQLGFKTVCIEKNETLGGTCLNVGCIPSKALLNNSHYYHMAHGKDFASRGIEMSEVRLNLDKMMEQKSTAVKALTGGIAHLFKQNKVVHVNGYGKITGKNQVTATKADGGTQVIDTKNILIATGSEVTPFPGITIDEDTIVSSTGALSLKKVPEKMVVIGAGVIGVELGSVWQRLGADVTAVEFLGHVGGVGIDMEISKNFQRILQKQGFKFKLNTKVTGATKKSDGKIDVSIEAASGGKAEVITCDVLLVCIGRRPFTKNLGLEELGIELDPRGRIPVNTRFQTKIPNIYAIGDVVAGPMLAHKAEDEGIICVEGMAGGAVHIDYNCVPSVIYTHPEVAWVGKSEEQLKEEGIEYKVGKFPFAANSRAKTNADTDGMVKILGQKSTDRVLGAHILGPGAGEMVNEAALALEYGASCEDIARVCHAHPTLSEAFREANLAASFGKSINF

[13] = HeLa, protein IDH1 (ISOCITRATE DEHYDROGENASE [NADP] CYTOPLASMIC.)

T6 sequence (P35270 whole entry): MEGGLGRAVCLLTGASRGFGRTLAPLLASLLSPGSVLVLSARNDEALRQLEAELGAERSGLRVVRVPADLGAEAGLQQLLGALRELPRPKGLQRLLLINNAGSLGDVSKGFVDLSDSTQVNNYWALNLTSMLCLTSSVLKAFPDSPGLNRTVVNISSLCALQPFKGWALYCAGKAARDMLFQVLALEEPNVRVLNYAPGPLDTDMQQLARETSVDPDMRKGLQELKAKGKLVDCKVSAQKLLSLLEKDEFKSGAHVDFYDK
T1 sequence (Q71U36 whole entry): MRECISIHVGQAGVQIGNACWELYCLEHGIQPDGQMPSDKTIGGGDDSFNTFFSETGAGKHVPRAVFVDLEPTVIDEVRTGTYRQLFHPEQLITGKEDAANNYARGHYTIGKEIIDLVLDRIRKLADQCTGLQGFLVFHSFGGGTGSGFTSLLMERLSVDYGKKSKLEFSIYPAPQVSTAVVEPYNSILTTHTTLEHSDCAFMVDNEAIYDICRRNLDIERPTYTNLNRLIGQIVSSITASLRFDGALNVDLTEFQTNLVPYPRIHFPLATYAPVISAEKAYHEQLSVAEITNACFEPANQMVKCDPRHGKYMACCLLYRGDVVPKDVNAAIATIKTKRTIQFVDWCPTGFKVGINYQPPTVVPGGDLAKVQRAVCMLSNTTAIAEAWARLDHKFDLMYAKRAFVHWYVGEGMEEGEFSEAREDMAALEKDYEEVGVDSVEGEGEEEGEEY
T2 sequence (Q9P2K8 whole entry): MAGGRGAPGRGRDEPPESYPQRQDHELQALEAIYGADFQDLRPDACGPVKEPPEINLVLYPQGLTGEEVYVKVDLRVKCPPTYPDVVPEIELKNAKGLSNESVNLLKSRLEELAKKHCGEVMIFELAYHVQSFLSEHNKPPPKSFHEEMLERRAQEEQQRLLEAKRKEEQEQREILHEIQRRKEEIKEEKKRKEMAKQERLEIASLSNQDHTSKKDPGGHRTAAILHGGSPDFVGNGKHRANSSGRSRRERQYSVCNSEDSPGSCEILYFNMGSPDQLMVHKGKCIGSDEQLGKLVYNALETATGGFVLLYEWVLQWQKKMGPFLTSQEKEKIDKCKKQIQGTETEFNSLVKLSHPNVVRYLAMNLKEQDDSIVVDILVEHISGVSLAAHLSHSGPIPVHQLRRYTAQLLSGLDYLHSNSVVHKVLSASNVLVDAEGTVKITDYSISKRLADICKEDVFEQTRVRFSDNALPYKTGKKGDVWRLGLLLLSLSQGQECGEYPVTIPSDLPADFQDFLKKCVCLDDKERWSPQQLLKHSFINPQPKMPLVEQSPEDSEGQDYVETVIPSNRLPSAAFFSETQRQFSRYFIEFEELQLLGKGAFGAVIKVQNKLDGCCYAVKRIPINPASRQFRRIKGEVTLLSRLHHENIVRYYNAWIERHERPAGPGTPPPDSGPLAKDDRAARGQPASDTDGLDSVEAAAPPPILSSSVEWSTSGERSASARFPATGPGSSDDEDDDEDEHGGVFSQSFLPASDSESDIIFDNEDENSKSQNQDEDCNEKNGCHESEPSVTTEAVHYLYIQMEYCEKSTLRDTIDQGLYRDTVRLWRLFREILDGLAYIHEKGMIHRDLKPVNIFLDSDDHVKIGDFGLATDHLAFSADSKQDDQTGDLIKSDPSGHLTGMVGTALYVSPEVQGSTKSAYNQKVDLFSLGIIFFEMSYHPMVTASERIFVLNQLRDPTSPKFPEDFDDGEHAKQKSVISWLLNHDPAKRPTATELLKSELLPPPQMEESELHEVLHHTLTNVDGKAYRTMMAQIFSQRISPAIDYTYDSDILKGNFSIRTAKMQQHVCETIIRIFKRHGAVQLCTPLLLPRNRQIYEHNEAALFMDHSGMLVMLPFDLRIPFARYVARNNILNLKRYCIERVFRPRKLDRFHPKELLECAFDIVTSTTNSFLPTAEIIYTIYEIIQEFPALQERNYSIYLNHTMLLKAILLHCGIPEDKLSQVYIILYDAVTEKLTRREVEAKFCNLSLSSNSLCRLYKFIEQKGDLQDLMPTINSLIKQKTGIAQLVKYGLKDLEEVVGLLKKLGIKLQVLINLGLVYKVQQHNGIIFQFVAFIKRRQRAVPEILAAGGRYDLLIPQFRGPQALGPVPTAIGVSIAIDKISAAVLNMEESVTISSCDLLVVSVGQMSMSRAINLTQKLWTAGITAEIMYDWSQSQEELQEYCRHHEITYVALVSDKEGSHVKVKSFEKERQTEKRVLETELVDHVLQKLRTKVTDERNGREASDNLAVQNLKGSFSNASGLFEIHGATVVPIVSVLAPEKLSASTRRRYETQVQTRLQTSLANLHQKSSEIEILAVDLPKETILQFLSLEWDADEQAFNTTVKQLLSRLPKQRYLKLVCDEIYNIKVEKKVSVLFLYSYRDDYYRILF
T7 sequence (O75874 whole entry): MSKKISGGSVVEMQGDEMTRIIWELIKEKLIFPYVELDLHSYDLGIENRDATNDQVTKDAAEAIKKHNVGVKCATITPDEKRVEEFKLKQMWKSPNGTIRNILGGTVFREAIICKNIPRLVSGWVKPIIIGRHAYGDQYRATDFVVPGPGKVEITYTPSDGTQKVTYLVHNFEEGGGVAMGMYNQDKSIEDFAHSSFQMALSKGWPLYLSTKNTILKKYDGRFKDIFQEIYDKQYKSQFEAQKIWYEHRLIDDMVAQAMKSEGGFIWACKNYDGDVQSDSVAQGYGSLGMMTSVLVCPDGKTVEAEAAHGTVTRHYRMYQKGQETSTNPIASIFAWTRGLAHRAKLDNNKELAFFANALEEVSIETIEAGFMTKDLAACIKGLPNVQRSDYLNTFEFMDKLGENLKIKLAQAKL
T4 sequence (P15311 whole entry): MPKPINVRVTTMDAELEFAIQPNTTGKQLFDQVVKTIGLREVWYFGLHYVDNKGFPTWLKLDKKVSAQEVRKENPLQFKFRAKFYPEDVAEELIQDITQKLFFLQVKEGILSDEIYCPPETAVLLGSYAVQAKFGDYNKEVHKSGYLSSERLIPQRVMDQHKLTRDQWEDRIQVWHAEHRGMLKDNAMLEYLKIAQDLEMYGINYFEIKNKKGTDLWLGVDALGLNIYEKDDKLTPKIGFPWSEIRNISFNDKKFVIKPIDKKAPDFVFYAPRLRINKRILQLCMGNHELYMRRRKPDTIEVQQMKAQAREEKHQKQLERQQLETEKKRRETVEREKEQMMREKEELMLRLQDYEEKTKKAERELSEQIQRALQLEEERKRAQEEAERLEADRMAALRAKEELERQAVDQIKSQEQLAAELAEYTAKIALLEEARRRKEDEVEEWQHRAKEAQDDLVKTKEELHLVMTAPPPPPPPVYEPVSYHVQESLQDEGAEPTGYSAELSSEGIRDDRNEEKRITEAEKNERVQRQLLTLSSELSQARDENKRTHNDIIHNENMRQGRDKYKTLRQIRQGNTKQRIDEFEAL
T3 sequence (Q14258 whole entry): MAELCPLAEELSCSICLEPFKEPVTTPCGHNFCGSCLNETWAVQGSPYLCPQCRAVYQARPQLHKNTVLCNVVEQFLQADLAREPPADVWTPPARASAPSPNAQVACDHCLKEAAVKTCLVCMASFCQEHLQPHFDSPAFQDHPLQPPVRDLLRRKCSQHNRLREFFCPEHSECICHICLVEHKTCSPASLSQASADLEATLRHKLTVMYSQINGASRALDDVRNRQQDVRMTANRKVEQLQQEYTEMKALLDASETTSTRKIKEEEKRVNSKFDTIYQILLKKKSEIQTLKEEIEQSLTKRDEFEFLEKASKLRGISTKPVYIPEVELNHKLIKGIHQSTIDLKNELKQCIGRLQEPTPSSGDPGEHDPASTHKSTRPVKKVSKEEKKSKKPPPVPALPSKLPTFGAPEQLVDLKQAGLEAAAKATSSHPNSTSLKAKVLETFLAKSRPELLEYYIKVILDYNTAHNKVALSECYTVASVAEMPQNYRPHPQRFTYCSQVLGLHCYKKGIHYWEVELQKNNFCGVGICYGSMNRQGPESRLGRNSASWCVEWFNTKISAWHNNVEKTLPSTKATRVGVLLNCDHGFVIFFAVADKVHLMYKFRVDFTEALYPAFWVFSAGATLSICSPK
T11 sequence (Q01518 whole entry): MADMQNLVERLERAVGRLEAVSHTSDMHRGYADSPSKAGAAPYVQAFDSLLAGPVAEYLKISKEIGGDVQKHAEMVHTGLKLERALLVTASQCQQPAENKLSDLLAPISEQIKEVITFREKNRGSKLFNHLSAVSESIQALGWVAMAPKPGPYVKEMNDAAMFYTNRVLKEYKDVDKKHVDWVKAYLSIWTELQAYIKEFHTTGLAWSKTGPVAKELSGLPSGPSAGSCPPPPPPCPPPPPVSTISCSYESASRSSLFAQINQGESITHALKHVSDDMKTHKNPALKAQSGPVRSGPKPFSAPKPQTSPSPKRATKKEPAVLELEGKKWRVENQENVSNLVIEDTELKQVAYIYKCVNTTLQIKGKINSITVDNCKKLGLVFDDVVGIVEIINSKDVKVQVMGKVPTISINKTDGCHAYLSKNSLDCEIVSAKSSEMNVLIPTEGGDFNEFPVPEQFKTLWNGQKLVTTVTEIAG

| SMILES | fold changes relative to vehicle control ([1]; HeLa, protein TUBA1A) | fold changes relative to vehicle control ([3]; HeLa, captured protein TRIM25) | fold changes relative to vehicle control ([4]; HeLa, protein EZR) | fold changes relative to vehicle control ([5]; HeLa, protein ATPIF1) | fold changes relative to vehicle control ([6]; HeLa, protein SPR) | fold changes relative to vehicle control ([7]; HeLa, captured protein IDH1) | fold changes relative to vehicle control ([8]; HeLa, captured protein DAP3) | fold changes relative to vehicle control ([9]; HeLa, captured protein ECHS1) | fold changes relative to vehicle control ([10]; HeLa, protein FASTKD3) | fold changes relative to vehicle control ([11]; HeLa, protein CAP1) | fold changes relative to vehicle control ([12]; HeLa, captured protein DLD) | fold changes relative to vehicle control [2] | fold changes relative to vehicle control ([2]; captured protein EIF2AK4, HeLa) | fold changes relative to vehicle control ([3]; HeLa, protein TRIM25) | fold changes relative to vehicle control ([4]; protein EZR, HeLa) | fold changes relative to vehicle control ([5]; protein ATPIF1, HeLa) | fold changes relative to vehicle control ([6]; protein SPR, HeLa) | fold changes relative to vehicle control [7, 13] | fold changes relative to vehicle control ([8]; protein DAP3, HeLa) | fold changes relative to vehicle control ([9]; protein ECHS1, HeLa) | also measured |
| --- | --- | --- | --- | --- | --- | --- | --- | --- | --- | --- | --- | --- | --- | --- | --- | --- | --- | --- | --- | --- | --- |
| Nc1nc2c(c(=O)[nH]1)N(C=O)C(CNc1ccc(C(=O)N[C@@H](CCC(=O)O)C(=O)O)cc1)CN2 (stereo partly drawn) [LEU, leucovorin] | 0.95 | 0.98 | 0.94 | 1 | 0.92 | 1.14 | 0.98 | 0.89 | 1.02 | 1 | 1.01 |  |  |  |  |  |  |  |  |  | fold changes relative to vehicle control ([2]; HeLa, protein EIF2AK4 (ISOFORM 1 OF EUKARYOTIC TRANSLATION INITIATION FACTOR 2-ALPHA KINASE 4)): 0.83 |
| NCCCNc1ccc(C(=O)NC(CCC(=O)O)C(=O)O)cc1 (stereo not drawn) [compound 7] | 1 | 0.94 | 0.92 | 1.41 | 0.95 | 0.96 | 0.94 | 0.91 | 0.9 | 0.94 | 1.03 | 1.02 |  |  |  |  |  |  |  |  |  |
| CCCCCCOc1cccc(Cc2cnc(N)nc2N)c1 [compound 2] | 0.92 |  |  |  |  |  |  |  |  |  |  |  | 0.96 | 1.07 | 1.87 | 1.32 | 1.21 | 2.46 fold | 1.16 | 0.92 | fold changes relative to vehicle control ([10]; captured protein FASTKD3, HeLa): 0.94; fold changes relative to vehicle control ([11]; protein CAP1, HeLa): 2.26; fold changes relative to vehicle control ([12]; HeLa, protein DLD): 0.42 |
| CCCCCCOc1ccc(Cc2cnc(N)nc2N)cc1 [compound 1] | 0.95 |  |  |  |  |  |  |  |  |  |  |  | 0.97 | 0.9 | 1.23 | 0.97 | 1.03 | 1.52 fold | 1.27 | 0.98 | fold changes relative to vehicle control ([10]; captured protein FASTKD3, HeLa): 0.93; fold changes relative to vehicle control ([11]; protein CAP1, HeLa): 1.19; fold changes relative to vehicle control ([12]; HeLa, protein DLD): 0.96 |
| Nc1nc2cccc(-c3ccccc3)c2n1Cc1ccc(Cl)c(Cl)c1 [compound 3] | 1.06 |  |  |  |  |  |  |  |  |  |  |  | 1.02 | 0.97 | 0.8 | 0.91 | 1.12 | 0.95 fold | 1 | 0.91 | fold changes relative to vehicle control ([10]; captured protein FASTKD3, HeLa): 0.95; fold changes relative to vehicle control ([11]; protein CAP1, HeLa): 0.73; fold changes relative to vehicle control ([12]; HeLa, protein DLD): 1.01 |
| NCCOCCOCC(=O)Nc1nc2ncc(CNc3ccc(C(=O)NC(CCC(=O)O)C(=O)O)cc3)nc2c(=O)[nH]1 (stereo not drawn) [compound 6] | 0.97 | 0.98 | 1.16 | 1.91 | 0.92 | 1.29 | 0.84 | 0.76 | 1.01 | 1.26 | 0.99 | 1.02 |  |  |  |  |  |  |  |  |  |
| Nc1nc2[nH]cc(CCc3ccc(C(=O)N[C@@H](CCC(=O)O)C(=O)O)cc3)c2c(=O)[nH]1 [PTX, pemetrexed] |  |  |  |  |  |  |  |  |  |  |  | 0.65 |  |  |  |  |  |  |  |  | fold changes relative to vehicle control [1]: 0.91; fold changes relative to vehicle control [3]: 0.87; fold changes relative to vehicle control [4]: 1; fold changes relative to vehicle control [5]: 1.84; fold changes relative to vehicle control [6]: 0.86; fold changes relative to vehicle control [7]: 1.18; fold changes relative to vehicle control [8]: 0.9; fold changes relative to vehicle control [9]: 0.98; fold changes relative to vehicle control [10]: 0.86; fold changes relative to vehicle control [11]: 1.12; fold changes relative to vehicle control [12]: 0.96 |

Reference: publication PMC6199744, “Development of Chemical Proteomics for the Folateome and Analysis of the Kinetoplastid Folateome” (ACS Infectious Diseases, 2018)
